Data as given in ChEMBL document CHEMBL1250538 (Bioorg Med Chem, 2010).

Tests used:
[1] = tested on: K562; assay: Antiproliferative activity against human K562 cells; type: functional, cell-based
[2] = Antiproliferative activity against BCR-ABL1 transfected mouse BA/F3 cells; type: functional, cell-based; details: BaF3
[3] = Antiproliferative activity against PDGFRbeta transfected mouse BA/F3 cells; type: functional, cell-based; details: BaF3
[4] = Antiproliferative activity against human GIST882 cells; type: functional, cell-based
[5] = Antiproliferative activity against mouse M-NFS-60 cells; type: functional, cell-based
[6] = Antiproliferative activity mouse BA/F3 cells in presence of interleukin 3; type: functional, cell-based; details: BaF3
[7] = species on record: Homo sapiens; assay: Toxicity in chronic CML patient assessed as cytogenetic response; type: organism-based; details: in vivo
[8] = species on record: Homo sapiens; assay: Toxicity in chronic CML patient assessed as maximum tolerated dose; type: organism-based; details: in vivo

SMILES | IC50 [1] | IC50 [2] | IC50 [3] | IC50 [4] | IC50 [5] | IC50 [6] | Activity [7] | MTD [8]
Cc1cn(-c2cc(NC(=O)c3ccc(C)c(Nc4nccc(-c5cccnc5)n4)c3)cc(C(F)(F)F)c2)cn1 [NILOTINIB] | 21 nM | 25 nM | 62 nM | 151 nM | 838 nM | > 10000 nM |  | 
Cc1ccc(NC(=O)c2ccc(CN3CCN(C)CC3)cc2)cc1Nc1nccc(-c2cccnc2)n1 [IMATINIB] | 244 nM | 678 nM | 39 nM | 108 nM | 358 nM | 9460 nM | Non-toxic | 400 mg
